{
  "source": "patent US4610686A",
  "about": "“Controlled delivery of haloperidol by an osmotic delivery system” (ALZA Corporation, priority 1983, dated 1986)",
  "key": {"[1]": {"settings": "haloperidol alone"}, "[2]": {"settings": "haloperidol, background statement; cited from earlier work"}},
  "data": [
    {"smiles": "O=C(CCCN1CCC(O)(c2ccc(Cl)cc2)CC1)c1ccc(F)cc1", "note": "[haloperidol, 4-[4-(-chlorophenyl)-4-hydroxy-1-piperidnyl]-1-(4-fluorophenyl)-1-butanone]", "values": [
      {"measurement": "osmotic pressure (in words)", "setting": "[1]", "result": "near zero osmotic pressure"},
      {"measurement": "solubility in water (in words, background)", "setting": "[2]", "result": "practically insoluble in water"},
      {"measurement": "solubility", "setting": "physchem; aqueous citric acid", "result": 165, "unit": "mg/mL"},
      {"measurement": "solubility", "setting": "physchem; aqueous maleic acid", "result": "> 200", "unit": "mg/mL"},
      {"measurement": "solubility", "setting": "physchem; aqueous malic acid", "result": "> 250", "unit": "mg/mL"},
      {"measurement": "solubility", "setting": "physchem; water", "result": "< 0.1", "unit": "mg/mL"}
    ]}
  ]
}
